Assay results as given in patent US20180049965A1, “ORAL CARE METHODS AND COMPOSITIONS UTILIZING CHITOSAN-DERIVATIVE COMPOUNDS” (Synedgen Inc., priority 2009, published 2018).

Columns and labels:
[1] = tested on: Streptococcus mutans ATCC 35668 biofilms; experiment: Immediate dispersal of stationary S. mutans biofilms, crystal violet, 1 minute treatment; assay type: cell-based; conditions: 1.2% chlorhexidine, room temperature
Procedure: FIG. 11 depicts the immediate dispersal of Streptococcus mutans ATCC 35668 2-day old stationary biofilms treated with 100 μg/mL chitosan-arginine (43 kDa, 25% functionalized, 88% DDA, 2.28 PDI), water, or 1.2% Chlorhexidine. The biofilms were rinsed, stained with crystal violet and treated for 1 minute and rinsed.
The S. mutans biofilms were grown in 12-well untreated tissue culture plates containing BHI media supplemented with 1% sucrose for approximately 3 days. The biofilms were rinsed with water three times and stained with crystal violet for 2 minutes then rinsed three times (FIG. 11, ‘Before’). Water, 100 μg/ml chitosan-arginine or 1.2% chlorhexidine were used to treat each biofilm for 1 minute at room temperature (FIG. 11, ‘During’).

[2] = tested on: Streptococcus mutans (ATCC 35668); experiment: Synergy of chitosan-arginine with chlorhexidine, remaining CFU after 1 hour; assay type: cell-based
Procedure: Solutions of both agents were prepared at 4× their intended final concentration. Two concentrations for each agent are used for each assay and the drugs were combined in 4 ways: […] Controls of each drug alone as well as positive (S. mutans only) and negative (media only) controls were prepared. […] After incubation, the plates were centrifuged for 10 minutes at 4000 RPM on a microtiter plate rotor, before being resuspended, sonicated, diluted and plated on BHI for remaining CPU.

[H]/N=C(\N/C(=N/[H])NCCCCCCNC(=N)NC(=N)Nc1ccc(Cl)cc1)Nc1ccc(Cl)cc1 [Chlorhexidine]
biofilm after 1 minute treatment and rinsing [1]: removed from the surface | Log CFU reduction beyond most active agent ([2]; Chlorhexidine 0.00625% alone (C/A 0 μg/ml)): 1.9 Log CFU | Log CFU reduction beyond most active agent ([2]; Chlorhexidine 0.0125% alone (C/A 0 μg/ml)): 1.8 Log CFU
